Molecular target: T1, CK1α (Homo sapiens, UniProt P48729+Q96SW2)
T1 construct: expressed in transfected cells
Experiment: CK1α ePL degradation assay in MDS-L cells
Type: cell-based
Conditions: MDS-L cells expressing ePL-tagged CK1α; for DC50: concentration giving 50% CK1α degradation vs DMSO control; for Y: lowest measured CK1α level normalized to DMSO control
Outline: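 Degradation efficiency is reported as Y value, the minimum CK1α level (percent of DMSO control) across doses. Readout used InCELL Hunter luminescent detection after MDS-L cell exposure at 37° C for stated times, doses 10 μM down to 0.0005 μM in 3-fold steps.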

T1 sequence (P48729 whole entry): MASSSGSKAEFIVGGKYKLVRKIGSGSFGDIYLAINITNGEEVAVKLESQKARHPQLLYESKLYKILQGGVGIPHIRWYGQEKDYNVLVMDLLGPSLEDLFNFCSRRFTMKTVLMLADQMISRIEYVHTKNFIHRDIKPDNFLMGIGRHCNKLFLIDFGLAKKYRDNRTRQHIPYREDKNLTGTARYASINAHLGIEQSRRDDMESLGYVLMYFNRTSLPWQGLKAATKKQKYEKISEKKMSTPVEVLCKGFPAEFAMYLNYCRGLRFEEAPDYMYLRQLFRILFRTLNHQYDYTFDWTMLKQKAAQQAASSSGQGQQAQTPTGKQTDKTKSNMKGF
T1 sequence (Q96SW2 whole entry): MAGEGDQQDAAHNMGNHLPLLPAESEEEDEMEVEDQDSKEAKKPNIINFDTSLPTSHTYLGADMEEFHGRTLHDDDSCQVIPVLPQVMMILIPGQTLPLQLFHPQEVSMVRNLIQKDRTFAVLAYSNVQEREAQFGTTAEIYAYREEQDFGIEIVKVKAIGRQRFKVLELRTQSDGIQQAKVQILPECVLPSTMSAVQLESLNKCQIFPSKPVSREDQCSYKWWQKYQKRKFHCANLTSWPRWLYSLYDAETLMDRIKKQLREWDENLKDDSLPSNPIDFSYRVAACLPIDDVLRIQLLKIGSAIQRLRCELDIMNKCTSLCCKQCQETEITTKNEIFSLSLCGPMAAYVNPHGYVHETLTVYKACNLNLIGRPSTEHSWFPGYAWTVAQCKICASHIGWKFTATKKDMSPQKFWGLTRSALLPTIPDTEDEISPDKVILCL
T1 sequence (Q16531 whole entry partner): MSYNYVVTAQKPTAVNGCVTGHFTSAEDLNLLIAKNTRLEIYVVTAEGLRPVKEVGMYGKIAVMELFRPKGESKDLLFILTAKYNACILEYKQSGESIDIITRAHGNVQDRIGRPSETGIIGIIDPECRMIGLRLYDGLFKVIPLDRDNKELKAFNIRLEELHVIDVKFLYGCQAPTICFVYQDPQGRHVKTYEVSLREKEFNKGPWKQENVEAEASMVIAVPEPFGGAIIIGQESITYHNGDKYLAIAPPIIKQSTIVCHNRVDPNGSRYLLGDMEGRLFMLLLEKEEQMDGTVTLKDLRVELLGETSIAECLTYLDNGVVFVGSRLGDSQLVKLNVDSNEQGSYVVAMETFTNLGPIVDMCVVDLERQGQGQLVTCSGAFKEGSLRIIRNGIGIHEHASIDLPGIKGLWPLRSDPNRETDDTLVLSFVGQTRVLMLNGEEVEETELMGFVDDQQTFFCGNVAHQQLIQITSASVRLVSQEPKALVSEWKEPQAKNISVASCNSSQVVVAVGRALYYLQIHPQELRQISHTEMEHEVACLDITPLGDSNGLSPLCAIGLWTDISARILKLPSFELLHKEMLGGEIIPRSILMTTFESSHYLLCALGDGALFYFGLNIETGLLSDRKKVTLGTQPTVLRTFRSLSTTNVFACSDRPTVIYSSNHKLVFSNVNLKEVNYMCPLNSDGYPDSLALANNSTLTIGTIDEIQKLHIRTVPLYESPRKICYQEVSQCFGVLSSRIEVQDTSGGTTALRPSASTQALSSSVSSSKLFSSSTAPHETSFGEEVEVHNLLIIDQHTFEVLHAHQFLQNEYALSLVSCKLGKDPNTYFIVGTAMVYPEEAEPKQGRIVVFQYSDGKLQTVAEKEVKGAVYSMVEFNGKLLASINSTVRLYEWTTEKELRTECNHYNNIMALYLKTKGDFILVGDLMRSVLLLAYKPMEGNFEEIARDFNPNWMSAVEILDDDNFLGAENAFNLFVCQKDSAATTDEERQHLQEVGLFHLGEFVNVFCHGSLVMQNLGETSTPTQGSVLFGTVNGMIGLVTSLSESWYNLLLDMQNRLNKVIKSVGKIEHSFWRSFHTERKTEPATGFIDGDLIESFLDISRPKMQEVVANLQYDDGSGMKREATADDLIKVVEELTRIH

Structure (SMILES)	DC50 [nM]	Y
O=C1CCC(N2Cc3c(ccc(C(=O)N[C@H](c4ccc(F)c(F)c4)C(F)(F)F)c3F)C2=O)C(=O)N1 (stereo partly drawn) [Example 113, N-((R)-1-(3,4-difluorophenyl)-2,2,2-trifluoroethyl)-2-(2,6-dioxopiperidin-3-yl)-4-fluoro-1-oxoisoindoline-5-carboxamide]	100 to 500	** (a Y value (shown as**) of 20%<Y≤35%)
O=C1CCC(N2Cc3c(ccc(C(=O)N[C@@H](CC(F)(F)F)c4ccc(Cl)cc4)c3F)C2=O)C(=O)N1 (stereo partly drawn) [Example 129, N-((S)-1-(4-chlorophenyl)-3,3,3-trifluoropropyl)-2-(2,6-dioxopiperidin-3-yl)-4-fluoro-1-oxoisoindoline-5-carboxamide]	500 to 1000	*** (a Y value (shown as***) of 35%<Y<50%)
O=C1CCC(N2Cc3cc(C(=O)N[C@@H](c4ccccc4F)C(F)(F)F)ccc3C2=O)C(=O)N1 (stereo partly drawn) [Example 197, 2-(2,6-dioxopiperidin-3-yl)-1-oxo-N-((S)-2,2,2-trifluoro-1-(2-fluorophenyl)ethyl)isoindoline-5-carboxamide]	500 to 1000	*** (a Y value (shown as***) of 35%<Y<50%)
O=C1CCC(N2Cc3c(ccc(C(=O)N[C@H](c4ccc(F)cn4)C(F)(F)F)c3F)C2=O)C(=O)N1 (stereo partly drawn) [Example 115, 2-(2,6-dioxopiperidin-3-yl)-4-fluoro-1-oxo-N-((R)-2,2,2-trifluoro-1-(5-fluoropyridin-2-yl)ethyl)isoindoline-5-carboxamide]	100 to 500	** (a Y value (shown as**) of 20%<Y≤35%)
Cn1ccc([C@@H](NC(=O)c2ccc3c(c2)CN(C2CCC(=O)NC2=O)C3=O)C(F)(F)F)n1 (stereo partly drawn) [Example 65, 2-(2,6-dioxopiperidin-3-yl)-1-oxo-N-((R)-2,2,2-trifluoro-1-(1-methyl-1H-pyrazol-3-yl)ethyl)isoindoline-5-carboxamide]	500 to 1000	** (a Y value (shown as**) of 20%<Y≤35%)
C[C@H](NC(=O)c1ccc2c(c1)CN(C1CCC(=O)NC1=O)C2=O)c1ccccn1 (stereo partly drawn) [Example 10]	100 to 500	** (a Y value (shown as**) of 20%<Y≤35%)
O=C1CCC(N2Cc3cc(C(=O)N[C@H](C4CCOCC4)C(F)(F)F)ccc3C2=O)C(=O)N1 (stereo partly drawn) [Example 36, 2-(2,6-dioxopiperidin-3-yl)-1-oxo-N-((R)-2,2,2-trifluoro-1-(tetrahydro-2H-pyran-4-yl)ethyl)isoindoline-5-carboxamide]	100 to 500	** (a Y value (shown as**) of 20%<Y≤35%)
C[C@@H](NC(=O)c1ccc2c(c1)CN(C1CCC(=O)NC1=O)C2=O)C1CCCC1 (stereo partly drawn) [Example 132]	100 to 500	** (a Y value (shown as**) of 20%<Y≤35%)
O=C1CCC(N2Cc3cc(C(=O)N[C@H](c4ccc(OC5CC5)cc4)C(F)(F)F)ccc3C2=O)C(=O)N1 (stereo partly drawn) [Example 148, N-((R)-1-(4-cyclopropoxyphenyl)-2,2,2-trifluoroethyl)-2-(2,6-dioxopiperidin-3-yl)-1-oxoisoindoline-5-carboxamide]	< 100	* (a Y value (shown as *) of 0<Y≤20%)
O=C1CCC(N2Cc3c(ccc(C(=O)N[C@H](c4ccccc4Cl)C(F)(F)F)c3F)C2=O)C(=O)N1 (stereo partly drawn) [Example 114, N-((R)-1-(2-chlorophenyl)-2,2,2-trifluoroethyl)-2-(2,6-dioxopiperidin-3-yl)-4-fluoro-1-oxoisoindoline-5-carboxamide]	< 100	* (a Y value (shown as *) of 0<Y≤20%)
O=C1CCC(N2Cc3cc(C(=O)N[C@H](c4c(F)cccc4Cl)C(F)(F)F)ccc3C2=O)C(=O)N1 (stereo partly drawn) [Example 151, N-((R)-1-(2-chloro-6-fluorophenyl)-2,2,2-trifluoroethyl)-2-(2,6-dioxopiperidin-3-yl)-1-oxoisoindoline-5-carboxamide]	< 100	* (a Y value (shown as *) of 0<Y≤20%)
CN(C)Cc1ccccc1[C@@H](NC(=O)c1ccc2c(c1)CN(C1CCC(=O)NC1=O)C2=O)C(F)(F)F (stereo partly drawn) [Example 192, N-((R)-1-(2-((dimethylamino)methyl)phenyl)-2,2,2-trifluoroethyl)-2-(2,6-dioxopiperidin-3-yl)-1-oxoisoindoline-5-carboxamide]	< 100	* (a Y value (shown as *) of 0<Y≤20%)
O=C1CCC(N2Cc3c(ccc(C(=O)N[C@H](c4cccc(F)c4)C(F)(F)F)c3F)C2=O)C(=O)N1 (stereo partly drawn) [Example 108, 2-(2,6-dioxopiperidin-3-yl)-4-fluoro-1-oxo-N-((R)-2,2,2-trifluoro-1-(3-fluorophenyl)ethyl)isoindoline-5-carboxamide]	100 to 500	** (a Y value (shown as**) of 20%<Y≤35%)
CN1CCN(c2cccc([C@@H](NC(=O)c3ccc4c(c3)CN(C3CCC(=O)NC3=O)C4=O)C(F)(F)F)c2)CC1 (stereo partly drawn) [Example 209, 2-(2,6-dioxopiperidin-3-yl)-1-oxo-N-((R)-2,2,2-trifluoro-1-(3-(4-methylpiperazin-1-yl)phenyl)ethyl)isoindoline-5-carboxamide]	100 to 500	** (a Y value (shown as**) of 20%<Y≤35%)
O=C1CCC(N2Cc3cc(C(=O)N[C@H](c4cccc(C(F)(F)F)n4)C(F)(F)F)ccc3C2=O)C(=O)N1 (stereo partly drawn) [Example 125, 2-(2,6-dioxopiperidin-3-yl)-1-oxo-N-((R)-2,2,2-trifluoro-1-(6-(trifluoromethyl)pyridin-2-yl)ethyl)isoindoline-5-carboxamide]	< 100	* (a Y value (shown as *) of 0<Y≤20%)

Further lines, results first:

DC50 [nM]	Y	Structure (SMILES)
< 100	** (a Y value (shown as**) of 20%<Y≤35%)	O=C1CCC(N2Cc3cc(C(=O)N[C@H](CC(F)(F)F)c4cccc(F)c4)ccc3C2=O)C(=O)N1 (stereo partly drawn) [Example 190, 2-(2,6-dioxopiperidin-3-yl)-1-oxo-N-((R)-3,3,3-trifluoro-1-(3-fluorophenyl)propyl)isoindoline-5-carboxamide]
< 100	* (a Y value (shown as *) of 0<Y≤20%)	N#Cc1cccc([C@@H](NC(=O)c2ccc3c(c2)CN(C2CCC(=O)NC2=O)C3=O)C(F)(F)F)c1 (stereo partly drawn) [Example 64, N-((R)-1-(3-cyanophenyl)-2,2,2-trifluoroethyl)-2-(2,6-dioxopiperidin-3-yl)-1-oxoisoindoline-5-carboxamide]
< 100	** (a Y value (shown as**) of 20%<Y≤35%)	O=C1CCC(N2Cc3cc(C(=O)N[C@H](c4ccc(Cl)cc4)C(F)(F)F)c(F)cc3C2=O)C(=O)N1 (stereo partly drawn) [Example 91, N-((R)-1-(4-chlorophenyl)-2,2,2-trifluoroethyl)-2-(2,6-dioxopiperidin-3-yl)-6-fluoro-1-oxoisoindoline-5-carboxamide]
< 100	* (a Y value (shown as *) of 0<Y≤20%)	Cc1cccnc1[C@@H](NC(=O)c1ccc2c(c1)CN(C1CCC(=O)NC1=O)C2=O)C(F)(F)F (stereo partly drawn) [Example 199, 2-(2,6-dioxopiperidin-3-yl)-1-oxo-N-((R)-2,2,2-trifluoro-1-(3-methylpyridin-2-yl)ethyl)isoindoline-5-carboxamide]
< 100	** (a Y value (shown as**) of 20%<Y≤35%)	C[C@H](NC(=O)c1ccc2c(c1)CN(C1CCC(=O)NC1=O)C2=O)c1ccc(F)cc1 (stereo partly drawn) [Example 16]
< 100	* (a Y value (shown as *) of 0<Y≤20%)	CC1([C@@H](NC(=O)c2ccc3c(c2)CN(C2CCC(=O)NC2=O)C3=O)C(F)(F)F)CC1 (stereo partly drawn) [Example 78, 2-(2,6-dioxopiperidin-3-yl)-1-oxo-N-((R)-2,2,2-trifluoro-1-(1-methylcyclopropyl)ethyl)isoindoline-5-carboxamide]
< 100	* (a Y value (shown as *) of 0<Y≤20%)	O=C1CCC(N2Cc3cc(C(=O)N[C@H](c4ccc(F)cc4Cl)C(F)(F)F)ccc3C2=O)C(=O)N1 (stereo partly drawn) [Example 72, N-((R)-1-(2-chloro-4-fluorophenyl)-2,2,2-trifluoroethyl)-2-(2,6-dioxopiperidin-3-yl)-1-oxoisoindoline-5-carboxamide]
< 100	* (a Y value (shown as *) of 0<Y≤20%)	O=C1CCC(N2Cc3c(ccc(C(=O)N[C@H](c4ncccc4Cl)C(F)(F)F)c3F)C2=O)C(=O)N1 (stereo partly drawn) [Example 139, N-((R)-1-(3-chloropyridin-2-yl)-2,2,2-trifluoroethyl)-2-(2,6-dioxopiperidin-3-yl)-4-fluoro-1-oxoisoindoline-5-carboxamide]
< 100	* (a Y value (shown as *) of 0<Y≤20%)	O=C1CCC(N2Cc3cc(C(=O)N[C@H](c4cccc(Oc5ccccc5)c4)C(F)(F)F)ccc3C2=O)C(=O)N1 (stereo partly drawn) [Example 158, 2-(2,6-dioxopiperidin-3-yl)-1-oxo-N-((R)-2,2,2-trifluoro-1-(3-phenoxyphenyl)ethyl)isoindoline-5-carboxamide]
< 100	* (a Y value (shown as *) of 0<Y≤20%)	O=C1CCC(N2Cc3cc(C(=O)N[C@H](c4ccc(Cl)cn4)C(F)(F)F)ccc3C2=O)C(=O)N1 (stereo partly drawn) [Example 109, N-((R)-1-(5-chloropyridin-2-yl)-2,2,2-trifluoroethyl)-2-(2,6-dioxopiperidin-3-yl)-1-oxoisoindoline-5-carboxamide]
< 100	* (a Y value (shown as *) of 0<Y≤20%)	O=C1CCC(N2Cc3c(ccc(C(=O)N[C@H](c4ccc(F)cc4F)C(F)(F)F)c3F)C2=O)C(=O)N1 (stereo partly drawn) [Example 105, N-((R)-1-(2,4-difluorophenyl)-2,2,2-trifluoroethyl)-2-(2,6-dioxopiperidin-3-yl)-4-fluoro-1-oxoisoindoline-5-carboxamide]
< 100	* (a Y value (shown as *) of 0<Y≤20%)	O=C1CCC(N2Cc3cc(C(=O)N[C@H](c4ccc(C(F)(F)F)cc4)C(F)(F)F)ccc3C2=O)C(=O)N1 (stereo partly drawn) [Example 40, 2-(2,6-dioxopiperidin-3-yl)-1-oxo-N-((R)-2,2,2-trifluoro-1-(4-(trifluoromethyl)phenyl)ethyl)isoindoline-5-carboxamide]
